Test [1] addresses T1, Tyrosinase (Agaricus bisporus, UniProt O42713).
T1 sequence (O42713 whole entry): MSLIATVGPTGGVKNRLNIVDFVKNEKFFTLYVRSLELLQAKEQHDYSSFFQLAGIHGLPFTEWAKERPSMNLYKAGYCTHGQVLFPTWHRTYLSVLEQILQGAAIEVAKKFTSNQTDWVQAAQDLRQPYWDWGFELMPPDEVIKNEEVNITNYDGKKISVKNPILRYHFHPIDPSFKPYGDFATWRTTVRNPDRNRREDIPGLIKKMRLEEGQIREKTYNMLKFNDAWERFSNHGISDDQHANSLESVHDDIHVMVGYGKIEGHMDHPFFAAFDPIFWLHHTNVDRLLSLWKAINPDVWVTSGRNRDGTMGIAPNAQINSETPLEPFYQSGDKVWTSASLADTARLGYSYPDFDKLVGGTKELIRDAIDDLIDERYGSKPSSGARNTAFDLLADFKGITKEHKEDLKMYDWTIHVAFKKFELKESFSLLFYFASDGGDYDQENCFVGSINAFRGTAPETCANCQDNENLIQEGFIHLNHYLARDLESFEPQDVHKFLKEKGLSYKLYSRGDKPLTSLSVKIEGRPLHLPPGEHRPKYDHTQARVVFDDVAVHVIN
As to the kind of experiment: (§1) Inhibition of mushroom tyrosinase using L-tyrosine as substrate preincubated for 10 mins with substrate followed by enzyme addition measured after 15 mins by spectrophotometry.

Test [2] addresses T2, Tyrosinase (Agaricus bisporus) (UniProt O42713).
T2 sequence (whole entry): T1 sequence (O42713 whole entry)
The test is described as §1.

In test [3] the target is T1, Tyrosinase. As to the kind of experiment: Competitive inhibition of mushroom tyrosinase using L-tyrosine as substrate preincubated for 10 mins with substrate followed by enzyme addition measured after 15 mins by Dixon plot analysis.
Test [4] deals with T1, Tyrosinase. Kind of test: Inhibition of mushroom tyrosinase using L-DOPA as substrate preincubated for 10 mins with substrate followed by enzyme addition measured after 15 mins by spectrophotometry.
In test [5] the target is T1, Tyrosinase. Kind of test: Competitive inhibition of mushroom tyrosinase using L-DOPA as substrate preincubated for 10 mins with substrate followed by enzyme addition measured after 15 mins by Dixon plot analysis.
Test [6] concerns the target T2, Tyrosinase (Agaricus bisporus). As to the kind of experiment: Ratio of kojic acid IC50 to compound IC50 for mushroom tyrosinase using L-tyrosine as substrate.
Test [7] has the same target. Kind of test: Reversible inhibition of mushroom tyrosinase at 0.781 to 3.125 uM.
Test [8] has the same target. Kind of test: Inhibition of mushroom tyrosinase using L-tyrosine as substrate at 0.78 uM by spectrophotometry. Conditions: TDE = time-dependent effect.

SMILES strings stand for the structures. Active and inactive are the calls of the source. The rule behind the calls is not given here.

With `COc1ccc(CCC(=O)c2ccc3c(c2O)CC(O)C(C)(C)O3)cc1` (centres undefined), the results for the 50% inhibitory concentration (IC50) in test [1] and in test [4] were 18.4 µM and 32.6 µM, respectively. The inhibition result in test [2] was “Dose-dependent effect”. Also, the Ki in test [3] is 9.36 µM; in test [5], 13.3 µM.
`COc1ccc(CCC(=O)c2c(O)c(CC=C(C)C)c3c(c2O)CC(O)C(C)(C)O3)cc1` (centres undefined): in test [6], the Ratio IC50 was 10. Further, the inhibition entry in test [7] is “Active”. Also, the inhibition entry in test [8] was “tde”; in test [2] it was “Dose-dependent effect”. In addition, the IC50 in test [1] worked out at 1.01 µM; in test [4] it was 19.5 µM. In addition, the values for the Ki in test [3] and in test [5] were 0.48 µM and 8.16 µM, respectively.
`COc1ccc(CCC(=O)c2c(O)c3c(c4c2OC(C(C)(C)O)C4)OC(C)(C)C=C3)cc1` (centres undefined): the Ratio IC50 in test [6] is 10. The IC50 in test [1] amounted to 1.28 µM; in test [4], 5.22 µM. The inhibition result in test [2] was “Dose-dependent effect”. The figures for the Ki in test [3] and in test [5] were 0.63 µM and 2.74 µM, respectively.
Consider `CC(C)=CCc1c2c(c(O)c3c1O[C@H](c1ccc(O)cc1)CC3=O)C=CC(C)(C)O2` [LUPINIFOLIN], for which the IC50 in test [1] turned out to be 11.2 µM; in test [4], 84.1 µM. The inhibition result in test [2] was “Dose-dependent effect”. In addition, the Ki stood at 5.33 µM in test [3] and 36.3 µM in test [5].
In the same order, the values of `CC(C)=CCc1c2c(c(O)c3c1O[C@H](c1ccc(O)cc1O)CC3=O)C=CC(C)(C)O2` [FLEMICHIN D] are 1.79 µM, 7.48 µM, “Dose-dependent effect”, 0.86 µM and 3.77 µM.
As to `COc1ccc([C@@H]2CC(=O)c3c(O)c4c(c(CC=C(C)C)c3O2)OC(C)(C)C=C4)c(O)c1` [KHONKLONGINOL H], the IC50 in test [1] came out at 4.96 µM; in test [4] it was 20.4 µM. Also, the inhibition result in test [2] is “Dose-dependent effect”. The Ki was found to be 2.07 µM in test [3] and 8.15 µM in test [5].

As a reminder, the IC50 is the point on the concentration scale where inhibition reaches its midpoint. A higher IC50 goes with lower potency. A word on the Ki: it is a dissociation constant, usually derived from enzyme kinetics or from competition with a known ligand. A low value points to tighter binding.
